Measurements from PMC6795057, “Plumbagin Prevents Secretory Diarrhea by Inhibiting CaCC and CFTR Channel Activities” (Frontiers in Pharmacology, 2019).
pIC50: −log10 of the molar value.

Assays:
[1] = molecular target: CFTR (cystic fibrosis transmembrane conductance regulator) (Homo sapiens, UniProt P13569); experiment: short-circuit current in HT-29 cells, FSK-stimulated; also inhibits current with genistein (direct activator, IC50 […]); type: cell-based
[2] = molecular target: T1, TMEM16A (transmembrane protein 16A) (Homo sapiens, UniProt Q5XXA6); experiment: YFP iodide-influx fluorescence quenching in TMEM16A-expressing FRT cells; Eact-stimulated short-circuit current; type: cell-based
T1 construct: gene ANO1
T1 sequence (Q5XXA6 1-986): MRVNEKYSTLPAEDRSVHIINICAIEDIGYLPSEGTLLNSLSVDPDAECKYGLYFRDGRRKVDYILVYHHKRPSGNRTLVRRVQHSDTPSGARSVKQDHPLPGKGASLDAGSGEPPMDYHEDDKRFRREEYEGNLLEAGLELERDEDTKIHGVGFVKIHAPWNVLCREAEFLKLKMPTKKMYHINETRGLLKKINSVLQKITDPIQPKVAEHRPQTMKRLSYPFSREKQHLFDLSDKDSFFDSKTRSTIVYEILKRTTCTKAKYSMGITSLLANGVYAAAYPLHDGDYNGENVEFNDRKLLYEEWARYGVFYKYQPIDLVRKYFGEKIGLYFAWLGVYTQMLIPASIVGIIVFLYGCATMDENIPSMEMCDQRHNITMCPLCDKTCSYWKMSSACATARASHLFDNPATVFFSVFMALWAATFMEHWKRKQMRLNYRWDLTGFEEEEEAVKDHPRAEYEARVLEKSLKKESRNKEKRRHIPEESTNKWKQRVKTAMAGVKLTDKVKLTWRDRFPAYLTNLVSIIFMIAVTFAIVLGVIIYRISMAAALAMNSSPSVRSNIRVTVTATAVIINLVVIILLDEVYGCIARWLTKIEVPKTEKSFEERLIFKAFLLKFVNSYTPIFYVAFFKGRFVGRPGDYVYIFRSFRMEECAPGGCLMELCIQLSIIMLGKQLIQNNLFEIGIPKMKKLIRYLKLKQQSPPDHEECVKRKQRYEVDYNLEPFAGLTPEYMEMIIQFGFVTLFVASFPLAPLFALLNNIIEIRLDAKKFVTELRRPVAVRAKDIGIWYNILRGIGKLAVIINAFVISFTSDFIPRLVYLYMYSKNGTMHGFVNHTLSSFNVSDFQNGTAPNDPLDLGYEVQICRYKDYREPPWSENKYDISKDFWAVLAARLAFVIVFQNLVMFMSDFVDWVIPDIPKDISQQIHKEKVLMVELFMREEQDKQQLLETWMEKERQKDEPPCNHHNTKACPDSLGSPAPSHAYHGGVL

Chain of CFTR (cystic fibrosis transmembrane conductance regulator) (P13569 whole entry): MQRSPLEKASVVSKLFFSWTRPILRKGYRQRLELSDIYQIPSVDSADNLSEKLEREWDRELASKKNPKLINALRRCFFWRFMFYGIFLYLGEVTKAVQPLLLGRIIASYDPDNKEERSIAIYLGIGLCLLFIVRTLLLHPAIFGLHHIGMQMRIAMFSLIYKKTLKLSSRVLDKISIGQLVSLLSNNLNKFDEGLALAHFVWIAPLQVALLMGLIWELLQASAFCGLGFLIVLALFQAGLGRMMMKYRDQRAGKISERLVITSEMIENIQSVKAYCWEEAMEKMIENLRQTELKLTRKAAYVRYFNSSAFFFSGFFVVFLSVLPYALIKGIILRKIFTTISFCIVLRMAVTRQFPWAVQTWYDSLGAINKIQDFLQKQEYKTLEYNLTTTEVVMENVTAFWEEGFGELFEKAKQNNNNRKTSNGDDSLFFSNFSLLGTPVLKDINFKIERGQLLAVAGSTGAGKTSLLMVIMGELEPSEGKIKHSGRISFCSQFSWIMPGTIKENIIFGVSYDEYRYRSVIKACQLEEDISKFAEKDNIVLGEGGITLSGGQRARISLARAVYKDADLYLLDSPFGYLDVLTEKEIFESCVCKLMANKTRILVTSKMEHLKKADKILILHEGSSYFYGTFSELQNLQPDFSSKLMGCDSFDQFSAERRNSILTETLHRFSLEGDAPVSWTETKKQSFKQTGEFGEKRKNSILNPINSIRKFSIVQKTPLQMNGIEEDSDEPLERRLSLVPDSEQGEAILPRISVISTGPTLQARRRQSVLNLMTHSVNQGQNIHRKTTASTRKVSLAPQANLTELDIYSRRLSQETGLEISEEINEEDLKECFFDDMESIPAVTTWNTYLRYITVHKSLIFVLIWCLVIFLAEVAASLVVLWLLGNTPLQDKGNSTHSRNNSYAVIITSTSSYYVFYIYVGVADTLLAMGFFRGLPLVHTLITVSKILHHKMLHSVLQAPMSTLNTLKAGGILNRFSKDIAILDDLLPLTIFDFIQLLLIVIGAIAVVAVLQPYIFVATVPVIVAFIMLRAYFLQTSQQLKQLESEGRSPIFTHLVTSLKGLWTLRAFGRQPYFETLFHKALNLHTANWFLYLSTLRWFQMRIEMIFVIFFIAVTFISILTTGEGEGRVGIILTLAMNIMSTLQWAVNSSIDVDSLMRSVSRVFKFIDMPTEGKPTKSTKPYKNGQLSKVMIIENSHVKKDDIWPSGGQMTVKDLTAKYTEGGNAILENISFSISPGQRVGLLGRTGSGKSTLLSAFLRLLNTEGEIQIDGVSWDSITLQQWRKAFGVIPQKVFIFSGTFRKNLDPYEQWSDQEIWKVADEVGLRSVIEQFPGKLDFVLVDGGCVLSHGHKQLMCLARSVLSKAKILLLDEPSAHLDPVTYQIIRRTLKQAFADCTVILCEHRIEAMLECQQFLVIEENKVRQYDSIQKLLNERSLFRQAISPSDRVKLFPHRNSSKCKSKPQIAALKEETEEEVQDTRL

CC1=CC(=O)c2c(O)cccc2C1=O [plumbagin]
pIC50 [1]: 5.41
pIC50 [2]: ~4.90
